Reference: ChEMBL document CHEMBL1129037 (J Med Chem, 1996)

Key:
[1] = target: T1, Sodium-dependent dopamine transporter (Rattus norvegicus, UniProt P23977); assay: Inhibition of [3H]WIN-35428 binding to dopamine transporter using rat striatal tissue; assay type: tissue-based, Striatum
[2] = target: Sodium-dependent dopamine transporter (Rattus norvegicus) (UniProt P23977)
Description: The compound Hill coefficient value determined for WIN-Binding

[3] = target: T1, Sodium-dependent dopamine transporter; assay: Inhibitory activity against [3H]dopamine uptake in rat striatal tissue; assay type: functional, tissue-based, Striatum

T1 sequence (P23977 whole entry): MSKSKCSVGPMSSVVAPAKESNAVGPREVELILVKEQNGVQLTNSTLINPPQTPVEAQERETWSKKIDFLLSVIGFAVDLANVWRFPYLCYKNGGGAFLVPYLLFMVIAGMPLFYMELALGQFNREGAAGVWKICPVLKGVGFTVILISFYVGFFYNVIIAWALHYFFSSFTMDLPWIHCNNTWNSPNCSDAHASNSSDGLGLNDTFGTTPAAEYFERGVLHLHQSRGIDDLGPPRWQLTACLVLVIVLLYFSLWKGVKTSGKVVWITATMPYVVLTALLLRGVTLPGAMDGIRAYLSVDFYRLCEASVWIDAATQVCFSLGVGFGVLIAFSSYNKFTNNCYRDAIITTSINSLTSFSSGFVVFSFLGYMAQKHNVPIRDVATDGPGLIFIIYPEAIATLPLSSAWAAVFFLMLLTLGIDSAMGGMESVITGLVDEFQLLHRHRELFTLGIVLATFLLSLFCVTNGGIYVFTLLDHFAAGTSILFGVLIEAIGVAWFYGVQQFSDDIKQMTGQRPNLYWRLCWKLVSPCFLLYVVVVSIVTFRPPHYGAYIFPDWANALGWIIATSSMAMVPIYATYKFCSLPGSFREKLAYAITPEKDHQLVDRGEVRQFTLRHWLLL
Chain of Sodium-dependent dopamine transporter (Rattus norvegicus) (P23977 whole entry): as above

SMILES	IC50 [1] [nM]	Hill coefficient [2]	IC50 [3] [nM]
COC(=O)[C@@H](c1ccc(Cl)c(Cl)c1)[C@@H]1CCCCN1	5.3	2.07	7
COC(=O)C(c1ccccc1Br)C1CCCCN1 (single isomer, unassigned)	38100	1.06	59000
COC(=O)[C@@H](c1ccc(C)cc1)[C@@H]1CCCCN1	33	1.05	126
COC(=O)[C@@H](c1ccccc1F)[C@@H]1CCCCN1	1420	0.9	2900
COC(=O)C(c1ccc(C(C)(C)C)cc1)C1CCCCN1 (single isomer, unassigned)		1.1	
COC(=O)[C@@H](c1ccccc1Br)[C@@H]1CCCCN1	1870	0.93	3410
COC(=O)[C@@H](c1cccc(F)c1)[C@@H]1CCCCN1	40.5	0.85	160
COC(=O)[C@@H](c1ccc([N+](=O)[O-])cc1)[C@@H]1CCCCN1	494	1.17	1610
COC(=O)[C@@H](c1ccccc1)[C@@H]1CCCCN1		0.9	
COC(=O)[C@@H](c1ccc(Br)cc1)[C@@H]1CCCCN1	6.9	1.15	26.3
COC(=O)[C@@H](c1ccccc1OC)[C@@H]1CCCCN1		0.94	81000
COC(=O)[C@@H](c1cccc(C)c1)[C@@H]1CCCCN1	21.4	1.01	100
COC(=O)[C@@H](c1cccc(Br)c1)[C@@H]1CCCCN1	4.2	1.14	12.8
COC(=O)[C@@H](c1cccc(O)c1)[C@@H]1CCCCN1	321	1.09	790
COC(=O)C(c1ccccc1OC)C1CCCCN1 (single isomer, unassigned)	139000	0.87	290000
COC(=O)[C@@H](c1ccccc1O)[C@@H]1CCCCN1		1.04	35800
COC(=O)[C@@H](c1ccc(O)cc1)[C@@H]1CCCCN1	98	1.07	340
COC(=O)[C@@H](c1ccc(Cl)cc1)[C@@H]1CCCCN1	20.6	1.17	73.8
COC(=O)[C@@H](c1ccc(C(C)(C)C)cc1)[C@@H]1CCCCN1		1.12	
COC(=O)[C@@H](c1cccc(N)c1)[C@@H]1CCCCN1	265	1.06	578
COC(=O)[C@@H](c1ccc(N)cc1)[C@@H]1CCCCN1	34.6	0.96	115
COC(=O)C(c1cccc(Cl)c1)C1CCCCN1 (single isomer, unassigned)	378	1.03	1540
COC(=O)[C@@H](c1ccccc1Cl)[C@@H]1CCCCN1	1950	0.98	2660
COC(=O)[C@@H](c1cccc(Cl)c1)[C@@H]1CCCCN1	5.1	0.95	23
COC(=O)[C@@H](c1ccc(F)cc1)[C@@H]1CCCCN1	35	0.97	142
COC(=O)[C@@H](c1ccc(I)cc1)[C@@H]1CCCCN1	14	1.1	64.5
COC(=O)[C@@H](c1ccc(OC)c(OC)c1)[C@@H]1CCCCN1	810	1.12	1760
COC(=O)[C@H]1[C@@H](OC(=O)c2ccccc2)C[C@@H]2CC[C@H]1N2C		1.03	
COC(=O)C(c1ccccc1Cl)C1CCCCN1 (single isomer, unassigned)	52500	0.92	61000
